Results published in ChEMBL document CHEMBL5550215, “Discovery of Novel Imidazo[1,2-a]pyridine-Based HDAC6 Inhibitors as an Anticarcinogen with a Cardioprotective Effect” (J Med Chem, 2024).
Calls of active or inactive are those of the source. The calls are words filed in the database; no cut-off is given here.

Tests used:
H9c2 [1] = experiment: Protection against H2O2 induced myocardial cell injury in rat H9c2 cells at 5 uM pretreated for 24 hrs followed by H2O2 exposure and measured after 1.5 hrs (reference value: 41.79+/-1.59%); assay type: functional; conditions: time 25.5 hrs
H9c2 [2] = experiment: Protection against H2O2 induced myocardial cell injury in rat H9c2 cells assessed as fold change at 10 uM pretreated for 24 hrs followed by H2O2 exposure and measured after 1.5 hrs relative to H2O2 alone; assay type: functional; conditions: time 25.5 hrs
H9c2 [3] = experiment: Protection against H2O2 induced myocardial cell injury in rat H9c2 cells at 10 uM pretreated for 24 hrs followed by H2O2 exposure and measured after 1.5 hrs (reference value: 17.91 to 57.32%); assay type: functional; conditions: time 25.5 hrs
[4] = biological target: T1, Protein deacetylase HDAC6 (Homo sapiens) (UniProt Q9UBN7); conditions: dose 100.0 nM
T1 sequence (whole entry): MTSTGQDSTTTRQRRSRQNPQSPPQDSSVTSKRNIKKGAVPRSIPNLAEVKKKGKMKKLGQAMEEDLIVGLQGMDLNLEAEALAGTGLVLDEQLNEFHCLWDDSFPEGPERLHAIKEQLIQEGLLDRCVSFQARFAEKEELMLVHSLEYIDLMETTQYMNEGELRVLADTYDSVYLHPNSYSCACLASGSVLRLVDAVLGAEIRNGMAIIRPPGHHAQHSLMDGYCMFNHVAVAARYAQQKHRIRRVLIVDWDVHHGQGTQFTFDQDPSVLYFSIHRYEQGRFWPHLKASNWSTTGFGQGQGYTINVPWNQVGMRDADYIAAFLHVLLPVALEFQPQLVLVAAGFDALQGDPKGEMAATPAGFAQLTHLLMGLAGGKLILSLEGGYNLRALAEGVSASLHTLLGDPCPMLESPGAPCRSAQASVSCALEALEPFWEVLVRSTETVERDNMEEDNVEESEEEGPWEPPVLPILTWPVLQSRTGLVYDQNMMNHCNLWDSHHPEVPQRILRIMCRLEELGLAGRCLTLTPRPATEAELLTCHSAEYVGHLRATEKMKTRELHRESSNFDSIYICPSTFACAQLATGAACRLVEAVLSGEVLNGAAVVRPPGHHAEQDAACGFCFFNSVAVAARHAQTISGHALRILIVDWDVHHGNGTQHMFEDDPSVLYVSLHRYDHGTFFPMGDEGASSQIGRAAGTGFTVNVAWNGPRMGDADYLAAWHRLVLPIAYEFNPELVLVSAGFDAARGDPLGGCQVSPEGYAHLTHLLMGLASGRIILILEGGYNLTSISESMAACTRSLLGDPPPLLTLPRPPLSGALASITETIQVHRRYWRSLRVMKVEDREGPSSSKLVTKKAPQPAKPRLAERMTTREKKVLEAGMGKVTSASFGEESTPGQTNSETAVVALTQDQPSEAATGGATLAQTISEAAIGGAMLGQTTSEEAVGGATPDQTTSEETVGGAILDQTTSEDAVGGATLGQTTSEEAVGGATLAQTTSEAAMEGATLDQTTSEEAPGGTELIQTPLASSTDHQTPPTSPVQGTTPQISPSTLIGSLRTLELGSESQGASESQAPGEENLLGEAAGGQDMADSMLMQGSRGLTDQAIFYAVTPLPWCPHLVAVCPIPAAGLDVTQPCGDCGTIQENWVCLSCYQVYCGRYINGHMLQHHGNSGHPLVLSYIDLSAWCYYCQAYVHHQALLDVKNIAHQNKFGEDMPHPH
Description: Inhibition of HDAC6 (unknown origin) at 100 nM relative to control

H9c2 [5] = experiment: Protection against H2O2 induced myocardial cell injury in rat H9c2 cells assessed as fold change at 5 uM pretreated for 24 hrs followed by H2O2 exposure and measured after 1.5 hrs relative to H2O2 alone; assay type: functional; conditions: time 25.5 hrs
TE-1 = experiment: Antiproliferative activity against human TE-1 cells assessed as inhibition of cell growth by MTT assay
PC-3 = experiment: Antiproliferative activity against human PC-3 cells assessed as inhibition of cell growth by MTT assay
NCI-H460 = experiment: Antiproliferative activity against human NCI-H460 cells assessed as inhibition of cell growth by MTT assay
HCT-116 = experiment: Antiproliferative activity against human HCT-116 cells assessed as inhibition of cell growth by MTT assay
PANC-1 = experiment: Antiproliferative activity against human PANC-1 cells assessed as inhibition of cell growth by MTT assay
MGC-803 = experiment: Antiproliferative activity against human MGC-803 cells assessed as inhibition of cell growth by MTT assay
SMMC-7721 = experiment: Antiproliferative activity against human SMMC-7721 cells assessed as inhibition of cell growth by MTT assay
Mus musculus [6] = experiment: Cardioprotective activity against myocardial ischemia/reperfusion induced C57BL/6J mouse model assessed as effect on infarct size of mouse heart at 10 mg/kg by TTC staining based analysis; assay type: functional, organism-based
Mus musculus [7] = experiment: Cardioprotective activity against myocardial ischemia/reperfusion induced C57BL/6J mouse model assessed as reduction in ST-segment elevation at 10 mg/kg; assay type: functional, organism-based

O=c1cc(-c2ccc(O)c(O)c2)oc2cc(O)cc(O)c12 [LUTEOLIN]
Activity (H9c2 [1]): 86.37% | fold change (FC) (H9c2 [2]): 2.53 | Activity (H9c2 [3]): 91.43% | inhibition [4]: 1% | fold change (FC) (H9c2 [5]): 2.07

Cc1ccc(-c2cc(C(=O)NCc3ccc(C(=O)NO)cc3)c3nccn3c2)cc1
IC50 (TE-1): 5.54 µM | IC50 (PC-3): > 10 µM | Activity (H9c2 [1]): 83.58% | IC50 (NCI-H460): > 10 µM | Activity (H9c2 [3]): 84.83% | IC50 (HCT-116): > 10 µM | IC50 (PANC-1): 6.15 µM | IC50 (MGC-803): 1.17 µM | IC50 (SMMC-7721): 1.85 µM

Cc1ccccc1-c1cc(C(=O)NCc2ccc(C(=O)NO)cc2)c2nccn2c1
IC50 (TE-1): 2.56 µM | IC50 (PC-3): > 10 µM | IC50 (NCI-H460): 8.67 µM | Activity (H9c2 [3]): 63.03% | IC50 (HCT-116): 9.49 µM | IC50 (PANC-1): > 10 µM | IC50 (MGC-803): 1.31 µM | IC50 (SMMC-7721): 2.6 µM

O=C(CCCCCCC(=O)Nc1ccccc1)NO [VORINOSTAT]
IC50 (TE-1): 2.25 µM | Activity (Mus musculus [6]): inactive | Activity (H9c2 [3]): 71.54% | Activity (Mus musculus [7]): Active
